We go through seven molecules from paper PMC7464173, “Phosphate Derivatives of 3-Carboxyacylbetulin: SynThesis, In Vitro Anti-HIV and Molecular Docking Study” (Biomolecules, 2020).

For data set [1], the system named is HIV-1. The data set is described as follows: Anti-HIV-1 replication activity, p24 antigen ELISA in HIV-infected CEM-T4 cell line. The conditions noted are these: for IC50: Human immunodeficiency virus 1, CEM-T4, 168 h; for TI: therapeutic index (selectivity index), the ratio of CC50 to IC50; for ability to inhibit HIV replication: tested range of concentrations 0.02 to 10 μM. In kind it is cell-based.

The nature of data set [2]: Cytotoxicity, MTT assay in CEM-T4 cells. In kind it is cell-based. The conditions noted are these: human. On the procedure:
For the determination of compounds’ cytotoxicity, CEM-T4 cells were obtained from the NIH AIDS Reagent Program (NIH, US) and were cultured in RPMI supplemented with 10% FCS (Biochrom) and antibiotics at 37 °C in 5% CO2 on 96-well culture plates. The experiments were carried out in media containing tested compounds in concentrations of the appropriate range. Cultures in a neat medium (RPMI, 10% FCS) were used as a control. Viability of cells was determined after 7 days using the MTT assay in which 10 μL of MTT solution (5 mg/mL) was added to each culture plate well, and cultures were incubated for 3 h at a temperature of 37 °C. After the centrifugation, the supernatant was removed, and DMSO was added for lysis of the cells and to dissolve crystals of formazan. Color intensity was measured with a plate reader at 560 nm.
Newly synthesized compounds 2–5 were evaluated for their activity against HIV-1 in a CEM-T4 cell line. First, a cytotoxicity assessment of the synthesized derivatives was performed using the MTT [3-(4,5-dimethylthiazol-2-yl)-2,5-diphenyltetrazolium bromide]. The results were expressed as CC50 (concentration of compound causing 50% cell death). Anti-HIV activity was expressed as IC50 (concentration of compound causing 50% inhibition of replication) and consisted of measurements of p24 antigen made using the Genscreen ULTRA HIV Ag-Ab Kit.

For data set [3] the following is noted: cytotoxicity; cited from earlier work.
Data set [4] relates to HIV-1. The arrangement: method as in PMID 31640137. The settings on record: in vitro anti-HIV-1 activity; cited from earlier work.
The mark [5] stands for this setting: concentration causing 50% cell death, CEM-T4 cells, MTT, 7 days, read-out: CC50.
Where [6] appears, read: cytotoxicity values, CEM-T4 cells, read-out: IC50 (cytotoxicity).

Where two headings read alike, the source gives them in different places.

As to `C=C(C)[C@@H]1CC[C@]2(COP(=O)(OCC)OCC)CC[C@]3(C)C(CCC4[C@@]5(C)CC[C@H](OC(=O)CCC(C)(C)C(=O)O)C(C)(C)C5CC[C@]43C)C12` (some centres unmarked) [Compound 5, 28-Diethoxyphosphoryl-3-O-(4′,4′-dimethylglutaryl)betulin], in the data set on HIV-1 [1], the midpoint of inhibition, the IC50, lay at 0.22 ± 0.05 µM and the TI turned out to be 68. For the same molecule, in data set [2] (setting [5]), the CC50 at 7 days stood at 15.1 ± 1.27 µM. In addition, in data set [2] (setting [6]), the IC50 at 7 days turned out to be 15.1 µM.

As to `C=C(C)[C@@H]1CC[C@]2(COP(=O)(OCC)OCC)CC[C@]3(C)C(CCC4[C@@]5(C)CC[C@H](OC(=O)CC(C)(C)C(=O)O)C(C)(C)C5CC[C@]43C)C12` (some centres unmarked) [Compound 3, 28-Diethoxyphosphoryl-3-O-(3′,3′-dimethylsuccinyl)betulin], in the data set with HIV-1 [1], half-maximal inhibition (IC50) required 0.02 ± 0.01 µM and the TI worked out at 1250. Besides, the CC50 at 7 days in data set [2] (setting [5]) worked out at 25.4 ± 1.54 µM. Besides, the IC50 at 7 days in data set [2] (setting [6]) was 25.4 µM.

As to `C=C(C)[C@@H]1CC[C@]2(COP(=O)(OCC)OCC)CC[C@]3(C)C(CCC4[C@@]5(C)CC[C@H](OC(=O)CC(C)(C)CC(=O)O)C(C)(C)C5CC[C@]43C)C12` (some centres unmarked) [Compound 4, 28-Diethoxyphosphoryl-3-O-(3′,3′-dimethylglutaryl)betulin], in the data set on HIV-1 [1], the concentration for half-maximal inhibition (IC50) turned out to be 0.04 ± 0.01 µM and the TI came to 500. For the same molecule, the cytotoxic concentration (CC50) at 7 days in data set [2] (setting [5]) turned out to be 19.7 ± 1.64 µM. For the same molecule, the IC50 at 7 days in data set [2] (setting [6]) came to 19.7 µM.

As to `C=C(C)[C@@H]1CC[C@]2(CO)CC[C@]3(C)[C@H](CC[C@@H]4[C@@]5(C)CC[C@H](O)C(C)(C)[C@@H]5CC[C@]43C)[C@@H]12` [Compound 1, Betulin], in the data set with HIV-1 [1], the IC50 is > 10 µM and the “ability to inhibit HIV replication” value is given as “did not demonstrate the ability to inhibit HIV replication”. Moreover, in data set [2] (setting [5]), the CC50 at 7 days was 46 ± 3.01 µM.

Take `C=C(C)[C@@H]1CC[C@]2(COP(=O)(OCC)OCC)CC[C@]3(C)C(CCC4[C@@]5(C)CC[C@H](O)C(C)(C)C5CC[C@]43C)C12` (some centres unmarked) [Compound 2, 28-Diethoxyphosphorylbetulin]: in the data set with HIV-1 [1], the IC50 was > 10 µM and the “ability to inhibit HIV replication” value was “did not demonstrate the ability to inhibit HIV replication”. Further, in data set [2] (setting [5]), the CC50 at 7 days was 18.3 ± 1.64 µM.

Take `C=C(C)[C@@H]1CC[C@]2(C(=O)O)CC[C@]3(C)[C@H](CC[C@@H]4[C@@]5(C)CC[C@H](OC(=O)CC(C)(C)C(=O)O)C(C)(C)[C@@H]5CC[C@]43C)[C@@H]12` [BVM, 3-O-(3’,3’-dimethylsuccinyl)betulinic acid, reference compound]: it took 0.03 ± 0.009 µM to reach half-maximal inhibition in the data set on HIV-1 [1] (IC50). In data set [2], this molecule registered a CC50 at 7 days of 29 ± 2.43 µM and an IC50 at 7 days of 29 µM.

For the molecule `C=C(CP(=O)(OCC)OCC)[C@@H]1CC[C@]2(C(=O)O)CC[C@]3(C)C(CC[C@@H]4[C@@]5(C)CC[C@H](OC(=O)CC(C)(C)C(=O)O)C(C)(C)C5CC[C@]43C)[C@@H]12` (some centres unmarked) [Compound 6, 30-diethoxyphosphoryl-3-O-(3′,3′-dimethylsuccinyl)betulinic acid], the CC50 in data set [3] was 68 µM. The IC50 in the data set on HIV-1 [4] is 0.02 µM.
